Biological target: T1, human S1P1 receptor (Homo sapiens, UniProt P21453)
T1 construct: expressed in transfected cells; membranes from cells stably expressing the S1P1 receptor
Experiment: GTP γ35S binding assay for S1P1 activity
Format: biochemical
Conditions: Activity potency: S1P1 receptor from GTP γ35S; membranes of cells stably expressing the S1P1 receptor; agonist-induced binding
Description: Compounds were tested for S1P1 activity using the GTP γ^35S binding assay. These compounds may be assessed for their ability to activate or block activation of the human S1P1 receptor in cells stably expressing the S1P1 receptor. GTP γ^35S binding was measured in the medium containing (mM) HEPES 25, pH 7.4, MgCl2 10, NaCl 100, dithitothreitol 0.5, digitonin 0.003%, 0.2 nM GTP γ^35S, and 5 μg membrane protein in a volume of 150 μl. Test compounds were included in the concentration range from 0.08 to 5,000 nM unless indicated otherwise. Membranes were incubated with 100 μM 5′-adenylylimmidodiphosphate for 30 min, and subsequently with 10 μM GDP for 10 min on ice. Drug solutions and membrane were mixed, and then reactions were initiated by adding GTP γ^35S and continued for 30 min at 25° C. Reaction mixtures were filtered over Whatman GF/B filters under vacuum, and washed three times with 3 mL of ice-cold buffer (HEPES 25, pH7.4, MgCl2 10 and NaCl 100). Filters were dried and mixed with scintillant, and counted for ^35S activity using a β-counter. Agonist-induced GTP γ^35S binding was obtained by subtracting that in the absence of agonist. Binding data were analyzed using a non-linear regression method. In case of antagonist assay, the reaction mixture contained 10 nM S1P in the presence of test antagonist at concentrations ranging from 0.08 to 5000 nM.

T1 sequence (P21453 whole entry): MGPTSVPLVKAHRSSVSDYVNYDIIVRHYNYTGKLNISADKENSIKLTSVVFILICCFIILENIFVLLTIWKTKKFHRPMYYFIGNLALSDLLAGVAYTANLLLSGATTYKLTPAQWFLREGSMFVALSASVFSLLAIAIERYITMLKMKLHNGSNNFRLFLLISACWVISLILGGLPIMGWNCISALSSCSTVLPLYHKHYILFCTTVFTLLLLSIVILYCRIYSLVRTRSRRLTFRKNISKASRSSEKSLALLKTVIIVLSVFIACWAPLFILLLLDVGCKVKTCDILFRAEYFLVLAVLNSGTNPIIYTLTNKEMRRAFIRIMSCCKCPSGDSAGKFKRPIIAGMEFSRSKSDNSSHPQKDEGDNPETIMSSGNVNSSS

Row | EC50 | SMILES
1 | 0.031 µM | O=P(O)(O)CCCNCc1ccc(CC/N=c2\scc(-c3ccccc3)n2-c2ccccc2)cc1 [Compound 1, (3-{[4-(2-{[(2Z)-3,4-diphenyl-1,3-thiazol-2(3H)-ylidene]amino}ethyl)benzyl]amino}propyl)phosphonic acid]
2 | 0.658 µM | O=C(O)CCNCc1ccc(CC/N=c2\scc(-c3ccccc3)n2-c2ccccc2)cc1 [Compound 2, 3-{[4-(2-{[(2Z)-3,4-diphenyl-1,3-thiazol-2(3H)-ylidene]amino}ethyl)benzyl]amino}propanoic acid]
3 | 0.086 µM | O=P(O)(O)CCCNCc1ccc(CCSc2ncc(-c3ccccc3)n2-c2ccccc2)cc1 [Compound 3, {3-[(4-{2-[(1,5-diphenyl-1H-imidazol-2-yl)thio]ethyl}benzyl)amino]propyl}phosphonic acid]
